We go through 3 compounds from ChEMBL document CHEMBL4033689, “Potential inhibitors of human carbonic anhydrase isozymes I and II: Design, synthesis and docking studies of new 1,3,4-thiadiazole derivatives” (Bioorg Med Chem, 2017).

The assay deals with Carbonic anhydrase 2 (Homo sapiens, UniProt P00918). The experiment in a line: Inhibition of carbonic anhydrase-2 in […] assessed as reduction in H+ release using CO2 as substrate by bromine thymol blue indicator based assay.

On to `O=C(CSc1nnc(Nc2ccccc2)s1)N/N=C/c1ccc(-c2ccc(Cl)c(Cl)c2)o1`, for which the IC50 result is reported as “Not Active”.

With `O=C(CSc1nnc(Nc2ccccc2)s1)N/N=C/c1ccc(-c2ccc([N+](=O)[O-])cc2)o1`, the IC50 entry is “Not Active”.

Regarding `O=C(CSc1nnc(Nc2ccccc2)s1)N/N=C/c1ccc(-c2ccc(Cl)cc2[N+](=O)[O-])o1`, the IC50 entry is “Not Active”.
